According to PMC10644346, “Shotgun Kinetic Target-Guided Synthesis Approach Enables the Discovery of Small-Molecule Inhibitors against Pathogenic Free-Living Amoeba Glucokinases” (ACS Infectious Diseases, 2023):

How the values were obtained:
[1] = molecular target: T1, NfGlck (Naegleria fowleri glucokinase) (Naegleria fowleri, UniProt A0A384E136); parameters: method as in PMID 35604214; conditions: cited from earlier work; for selectivity over the human variant (HsGlck): NfGlck vs HsGlck; for NfGlck IC50: previously identified NfGlck inhibitors
T1 sequence (A0A384E136 entry or part of it): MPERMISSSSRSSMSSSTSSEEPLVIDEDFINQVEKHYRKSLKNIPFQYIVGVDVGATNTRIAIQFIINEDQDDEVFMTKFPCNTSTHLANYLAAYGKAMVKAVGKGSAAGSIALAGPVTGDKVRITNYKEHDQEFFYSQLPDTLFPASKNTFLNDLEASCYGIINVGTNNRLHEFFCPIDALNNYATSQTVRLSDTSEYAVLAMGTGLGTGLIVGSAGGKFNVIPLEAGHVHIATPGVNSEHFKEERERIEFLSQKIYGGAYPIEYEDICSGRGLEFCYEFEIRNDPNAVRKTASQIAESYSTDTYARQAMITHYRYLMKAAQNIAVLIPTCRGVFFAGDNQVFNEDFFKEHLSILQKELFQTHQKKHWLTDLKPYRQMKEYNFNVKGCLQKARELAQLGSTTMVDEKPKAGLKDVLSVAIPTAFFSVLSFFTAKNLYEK

[2] = molecular target: T1, NfGlck (Naegleria fowleri glucokinase); experiment: Glucokinase assay (G6PDH-coupled reaction, absorbance at 340 nm), NfGlck; assay type: biochemical; conditions: for IC50: 10 nM enzyme, 15 min preincubation, pH 7.4, triplicate
Method: (§1) The open reading frames of NfGlck, AcGlck, and BmGlck were cloned into pQE30, transformed into M15(pREP) Escherichia coli (Qiagen, Valencia, CA), and expressed as previously described.[48],[54] Briefly, E. coli M15(pREP4) harboring pQE30 constructs were inoculated and grown to an optical density at 600 nm (OD600) of ∼0.6 prior to induction with 500 μM isopropyl β-D-1-thiogalactopyranoside (IPTG). Protein from bacterial lysate was purified by nickel column chromatography (HisTrap FF; GE Healthcare Life Sciences, Pittsburgh, PA) followed by ion-exchange chromatography (HiTrap Q XL; GE Healthcare Life Sciences, Pittsburgh, PA). Protein was typically stored in 25 mM HEPES–Na (pH 7.4), 150 mM NaCl, and 50% glycerol after protein concentrations were determined by using a Bradford assay with bovine serum albumin (BSA) as a standard.
(§2) Enzyme activities were measured in triplicate using a coupled reaction described previously.[54] In a clear 96-well plate, enzyme (HsGlck, NfGlck, AcGlck, or BmGlck, all at 10 nM) was incubated with potential inhibitors (in DMSO) in their optimized assay buffer for 15 min at room temperature. For HsGlck and NfGlck, the assay buffer contained 50 mM TEA and 3.3 mM MgCl2, pH 7.4. For AcGlck and BmGlck, the assay buffer contained 50 mM Tris-HCl and 3.3 mM MgCl2, pH 8. Substrate buffer (425 μM glucose, 2.5 mM ATP, 1 U/mL G6PDH, and 0.75 mM NADP^+) was added to each well to start the reaction for a total reaction volume of 200 μL. Immediately after addition, absorbance was measured at 340 nm at 15 s intervals for 2 min by using a BioTek Synergy H1 microplate reader (BioTek, Winooski, VT). Dose–response analysis and IC50 values were performed by using Prism 9.0 (GraphPad software, San Diego, CA). As a control, enzyme activity in inhibitor solvent (DMSO) was included in every assay. To solve the mode of inhibition, NfGlck activity was measured with increasing substrate concentrations (0–1.25 mM) of glucose in the presence or absence of different inhibitor concentrations (0–10 μM) in technical triplicates. Data were then analyzed, and statistical analyses were performed by extra sum-of-squares F test to compare two models of inhibition. […] All statistical analyses were performed using Prism 9 software.

[3] = molecular target: T2, BmGlck (Balamuthia mandrillaris glucokinase) (Balamuthia mandrillaris, UniProt Z9NIO0WF95); experiment: Glucokinase assay (G6PDH-coupled reaction, absorbance at 340 nm), BmGlck; assay type: biochemical; conditions: 10 nM enzyme, 15 min preincubation, pH 8, triplicate
Method: as §1, §2

[4] = molecular target: T3, AcGlck (Acanthamoeba castellanii glucokinase) (Acanthamoeba castellanii, UniProt L8GT25); experiment: Glucokinase assay (G6PDH-coupled reaction, absorbance at 340 nm), AcGlck; assay type: biochemical; conditions: 10 nM enzyme, 15 min preincubation, pH 8, triplicate
T3 sequence (L8GT25 entry or part of it): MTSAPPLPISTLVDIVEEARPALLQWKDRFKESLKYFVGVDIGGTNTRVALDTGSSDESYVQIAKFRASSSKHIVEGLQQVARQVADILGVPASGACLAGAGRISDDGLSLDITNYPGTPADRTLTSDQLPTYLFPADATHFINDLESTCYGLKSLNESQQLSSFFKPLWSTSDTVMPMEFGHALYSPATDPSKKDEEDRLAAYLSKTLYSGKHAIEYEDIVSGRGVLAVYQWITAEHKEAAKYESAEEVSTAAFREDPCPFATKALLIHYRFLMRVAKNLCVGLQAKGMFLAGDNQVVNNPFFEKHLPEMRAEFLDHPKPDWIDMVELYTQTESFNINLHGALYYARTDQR
Method: as §1, §2

[5] = molecular target: T4, HsGlck (human glucokinase) (Homo sapiens, UniProt P35557); experiment: Glucokinase assay (G6PDH-coupled reaction, absorbance at 340 nm), HsGlck; assay type: biochemical; conditions: 10 nM enzyme, 15 min preincubation, pH 7.4, triplicate
T4 sequence (P35557 1-465): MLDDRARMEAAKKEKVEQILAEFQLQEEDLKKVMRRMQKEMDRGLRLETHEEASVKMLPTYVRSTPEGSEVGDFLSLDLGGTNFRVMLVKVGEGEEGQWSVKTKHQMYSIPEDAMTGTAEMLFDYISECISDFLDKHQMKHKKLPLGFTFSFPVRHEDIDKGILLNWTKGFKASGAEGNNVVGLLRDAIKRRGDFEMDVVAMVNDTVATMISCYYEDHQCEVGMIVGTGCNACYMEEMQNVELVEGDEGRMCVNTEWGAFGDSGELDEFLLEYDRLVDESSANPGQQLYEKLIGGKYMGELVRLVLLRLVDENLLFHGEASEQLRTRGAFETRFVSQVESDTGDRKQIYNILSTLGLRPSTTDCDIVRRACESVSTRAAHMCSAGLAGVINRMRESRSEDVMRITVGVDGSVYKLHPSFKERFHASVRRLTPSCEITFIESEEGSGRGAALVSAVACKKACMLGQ
Method: as §2

[6] = system: N. fowleri; parameters: method as in PMID 30783001; conditions: media containing the glycolytic inhibitor; cited from earlier work
[7] = molecular target: T3, AcGlck (Acanthamoeba castellanii glucokinase); parameters: method as in PMID 35604214; conditions: cited from earlier work
[8] = molecular target: T2, BmGlck (Balamuthia mandrillaris glucokinase); parameters: method as in PMID 35604214; conditions: cited from earlier work

Compound | IC50 [2] [µM] | IC50 [3] [µM] | IC50 [4] [µM] | IC50 [5] [µM] | selectivity for NfGlck over HsGlck ([2]; NfGlck vs HsGlck IC50) | selectivity over the human variant (HsGlck) [1] | NfGlck IC50 [1] | effect on N. fowleri cellular growth [6] | activity against AcGlck [7] | activity against BmGlck [8]
O=c1c2ccccc2[se]n1-c1ccccc1 [SID856002, ebselen] | – | – | – | – | – | lacked significant selectivity | submicromolar | – | – | –
Cn1cc(C(=O)c2cccs2)c2cc(C(=O)NS(=O)(=O)c3ccc(-c4ccc(Oc5ccccc5)cc4)cc3)ccc21 [SZ35TA45] | > 10 | 1.92 ± 0.13 | 3.3 ± 1.3 | > 10 | – | – | – | – | – | –
CCOc1ccc(-c2ccc3c(c2)c(C(=O)NS(=O)(=O)c2ccc(-c4ccc(Oc5ccccc5)cc4)cc2)cn3C)cc1F [SZ35TA23] | > 10 | > 10 | 6.9 | > 10 | – | – | – | – | – | –
COc1cc(OC)cc(C(=O)NS(=O)(=O)c2ccc(CN3CCN(c4ccccc4)CC3)cc2)c1 [SZ1TA5] | > 10 | > 10 | 11.6 ± 9.2 | > 10 | – | – | – | – | – | –
O=C(NS(=O)(=O)c1ccc(-c2ccc3c(c2)OCCO3)cc1)c1ccc2c(ccn2Cc2ccc(C(F)(F)F)cc2C(F)(F)F)c1 [SZ33TA30] | > 10 | 1.48 ± 0.13 | 4.4 ± 0.4 | > 10 | – | – | – | – | – | –
O=C(NS(=O)(=O)c1ccc(-c2ccc(Oc3ccccc3)cc2)cc1)c1ccc2oc(-c3ccccc3)cc2c1 [SZ35TA41] | > 10 | 1.19 ± 0.29 | 1.6 ± 0.1 | > 10 | – | – | – | – | – | –
O=C(O)C(=O)CBr [3-bromopyruvate] | – | – | – | – | – | – | – | decrease in cellular growth | – | –
N=C(N)Nc1ccc(-c2ccc(-c3ccc(N=C(N)N)c(Cl)c3)o2)cc1Cl [MMV688271] | – | – | – | – | – | lacked significant selectivity | submicromolar | – | not active | not active
O=C(NS(=O)(=O)CCN(CSCc1ccccc1)Cc1ccc2c(c1)OCO2)c1ccc2oc(-c3ccccc3)cc2c1 [SZ28TA41] | > 10 | 7.22 ± 0.28 | 3.09 ± 0.66 | > 10 | – | – | – | – | – | –
O=C(NS(=O)(=O)CCN(CSCc1ccccc1)Cc1ccc2c(c1)OCO2)c1ccc2c(ccn2Cc2ccc(C(F)(F)F)cc2C(F)(F)F)c1 [SZ28TA30] | > 10 | 1.68 ± 0.05 | > 10 | > 10 | – | – | – | – | – | –

Continued, in another order:

IC50 [2] [µM] | IC50 [3] [µM] | IC50 [4] [µM] | IC50 [5] [µM] | selectivity for NfGlck over HsGlck ([2]; NfGlck vs HsGlck IC50) | Compound | selectivity over the human variant (HsGlck) [1] | NfGlck IC50 [1] | effect on N. fowleri cellular growth [6] | activity against AcGlck [7] | activity against BmGlck [8]
> 10 | 4.77 ± 1 | 4.35 ± 0.31 | > 10 | – | Cn1cc(C(=O)NS(=O)(=O)CCN(CSCc2ccccc2)Cc2ccc3c(c2)OCO3)c2cc(-c3ccc(S(C)(=O)=O)cc3)ccc21 [SZ28TA26] | – | – | – | – | –
> 10 | 4.83 ± 0.76 | 5.1 ± 0.5 | > 10 | – | COc1ccccc1-c1ccc(C(=O)NS(=O)(=O)c2ccc(-c3cc4ccccc4s3)cc2)cc1 [SZ37TA21] | – | – | – | – | –
> 10 | 3 ± 0.54 | > 10 | > 10 | – | O=C(NS(=O)(=O)c1ccc(-c2ccc(C(F)(F)F)cc2)cc1)c1ccc2oc(-c3ccccc3)cc2c1 [SZ16TA41] | – | – | – | – | –
10.9 ± 2 | > 10 | > 10 | 10.6 ± 0.45 | – | Cn1cc(C(=O)c2cccs2)c2cc(C(=O)NS(=O)(=O)c3ccc(-c4ccc5c(c4)OCCO5)cc3)ccc21 [SZ33TA45] | – | – | – | – | –
1.9 ± 1.1 | 0.33 ± 0.05 | 0.21 ± 0.04 | 8.5 ± 0.37 | slight selectivity | O=C(NS(=O)(=O)c1ccc(-c2ccc(Oc3ccccc3)cc2)cc1)c1ccc2c(ccn2Cc2ccc(C(F)(F)F)cc2C(F)(F)F)c1 [SZ35TA30] | – | – | – | – | –
